The values below come from ChEMBL document CHEMBL3507680, “University of Dundee, Gates Library screen for HepG2 cell viability”.

This data set in a line: Human HepG2 cell viability assay in 384 well format. It counts as toxicity, cell-based. Also on record: dose 125 nL, time 70.5 hour; concentration not given beside the values. Conditions: HepG2 cells, read-out: Inhibition.

Take `COc1cccc2c3c(c(=O)[nH]c12)CCC(C)(C)O3`: the cytotoxicity at 70.5 h is -5.31%. As for `NS(=O)(=O)c1cccnc1Nc1c(Cl)cccc1Cl`, the cytotoxicity at 70.5 h was determined as 14%. With `O=c1ncn(-c2ccc(F)cc2)c2ncccc12` the figure was -6.86%; with `Cc1ccc2c(c1)Oc1ncccc1C(=O)N2`, -0.446%. For `COCCNC(=O)C1CCCN(c2ccc3nncn3n2)C1` (stereo not given), the cytotoxicity at 70.5 h turned out to be 9.49%. With `CCOC(=O)Cn1c(=O)nc2n1C(=O)N(c1ccccc1)C2` the figure was 8.85%; with `COC(=O)Cn1c(=O)nc2n1C(=O)N(c1cccc(C)c1)C2`, -7.13%. For the molecule `COC(=O)Cn1c(=O)nc2n1C(=O)N(c1ccc(F)cc1)C2`, the cytotoxicity at 70.5 h was -12.5%. With `CN1CCN(C(=O)Cn2ccc3c(Cl)cccc32)CC1` the figure was -12.2%. `Cc1cnc(NC(=O)c2csc(NCC(C)C)n2)s1`: the cytotoxicity at 70.5 h is 9.3%. With `CC(C)n1[nH]c(=O)c2c1NC(=O)CC2c1cccc2cccnc12` (stereo not given) the figure was 15.8%. With `CC(C)n1[nH]c(=O)c2c1NC(=O)CC2c1ccncc1` (stereo not given) the figure was -11.3%. With `CC(C)n1[nH]c(=O)c2c1NC(=O)CC2c1ccc(C#N)cc1` (stereo not given) the figure was 18.7%; with `CSc1ccc(C2CC(=O)Nc3c2c(=O)[nH]n3C(C)C)cc1` (stereo not given), -9.28%; with `COc1cccc(C2CC(=O)Nc3c2cnn3C(C)(C)C)c1` (stereo not given), -6.1%.

Turning to `CC(C)(C)n1ncc2c1NC(=O)CC2c1ccc(C(=O)O)cc1` (stereo not given), the cytotoxicity at 70.5 h was -13.3%.

For the molecule `CC(C)(C)n1ncc2c1NC(=O)CC2c1ccc(C#N)cc1` (stereo not given), the cytotoxicity at 70.5 h is -10%. For `CC(C)CNC(=O)CSC1CCc2ccccc2NC1=O` (stereo not given), the cytotoxicity at 70.5 h is -15.8%. `CC(C)NC(=O)C(C)NC(=O)N1CCN(c2ccc(Cl)cc2)CC1` (stereo not given): the cytotoxicity at 70.5 h amounted to 19%. With `O=C1CC(c2cccs2)c2sc(C(=O)O)c(-c3ccccc3)c2N1` (stereo not given) the figure was -9.97%; with `O=C(NCc1ccc(Cl)cc1)C1CCCN(c2ccc3nncn3n2)C1` (stereo not given), -9.54%; with `COC(=O)Cn1c(=O)nc2n1C(=O)N(c1ccc(Br)cc1)C2`, 10.9%. In the case of `Cc1[nH]/c(=N\C(=O)c2csc(NC3CCCC3)n2)sc1C` it was 31.2%; in that of `Cc1cs/c(=N/C(=O)c2csc(NCC(C)C)n2)[nH]1`, -4.1%. Consider `CC(C)(C)n1ncc2c1NC(=O)CC2c1c(F)cccc1F` (stereo not given), for which the cytotoxicity at 70.5 h was -14.5%. With `COc1cccc2c3c(c(=O)[nH]c12)CCO3` the figure was 3.58%; with `COc1cccc2c3c(c(=O)n(C)c12)CCC(C)(C)O3`, -10.4%.

Take `COc1cc(OCC(=O)NCCc2ccccc2)cc(OC)c1OC`: the cytotoxicity at 70.5 h was -5.97%. With `O=c1[nH]cnc2[nH]c(N3CCNCC3)nc12` the figure was -2.26%.

As to `Cc1ccccc1-n1c(O)cc(C)c(C#N)c1=O`, the cytotoxicity at 70.5 h was -1.83%. Regarding `Cc1ccc(-n2c(O)cc(C)c(C#N)c2=O)c(C)c1`, the cytotoxicity at 70.5 h was -1.45%. In the case of `CCN(CC)S(=O)(=O)c1cnccc1N1CCN(C(C)C)CC1` it was 7.88%. With `CCCNS(=O)(=O)c1cnccc1N1CCN(C(C)C)CC1` the figure was 7.02%; with `Cn1cc(I)c(C(=O)NC2CCCCC2)n1`, 28.2%. With `CCn1cc(C(=O)Nc2cc(C(=O)OC)ccc2C(=O)OC)cn1` the figure was -9%; with `CCn1cc(C(=O)Nc2cc(C)ccc2C)cn1`, 17%; with `O=c1c2cn[nH]c2nc(SCCN2CCCC2)n1-c1ccccc1`, -6.58%. For the molecule `CC(=O)c1c(C)nn(S(=O)(=O)c2ccc(C)cc2)c1C`, the cytotoxicity at 70.5 h stood at 0.514%. With `CCCOC1Sc2nnc(C)n2N=C1c1ccccc1` (stereo not given) the figure was -9.6%. Take `CCn1c(O)c(C(C)=O)c2cc(C)ccc21`: the cytotoxicity at 70.5 h is -6.19%. Turning to `CC(=O)c1c(O)n(C)c2ccc(F)cc12`, the cytotoxicity at 70.5 h was -4.46%. With `CCc1nn(-c2cc(Oc3cccc(C)c3)nc(C)n2)c(N)c1C#N` the figure was -8.17%. In the case of `CCOC(=O)c1cnn(-c2cc(Oc3cc(C)ccc3C)ncn2)c1N` it was -0.831%; in that of `O=C(Cn1ccnc1)N1CC[C@H](Oc2cccc(F)c2)[C@@H](O)CC1`, 13%; in that of `Cc1nccn1[C@@H]1CC[C@@H](N(C)S(=O)(=O)c2ccccc2F)[C@H]1O`, -3.2%.

Take `COCC(=O)N1CCC(c2c(C(=O)N(C)C)sc3ncccc23)C1` (stereo not given): the cytotoxicity at 70.5 h turned out to be 27.1%.

On to `CO[C@@H]1CC[C@@H](NC(=O)CCc2ccc(Cl)cc2)[C@H]1O`, for which the cytotoxicity at 70.5 h was -7.81%.

Regarding `CC(=O)N1CCCC1(C(=O)N1CCCC1)c1cnccn1` (stereo not given), the cytotoxicity at 70.5 h came out at 0.591%. Consider `COc1ccccc1CN1CCC(c2nccc(C)n2)C1` (stereo not given), for which the cytotoxicity at 70.5 h came to 27.1%. In the case of `Cc1ncoc1C(=O)N1CCCC(c2ccc3c(N)nn(C)c3n2)C1` (stereo not given) it was -4.28%; in that of `CN1CCC(Cc2cnc(CNC(=O)Cc3cccc(F)c3)cn2)CC1`, -2.96%. With `Cc1occc1C(=O)N1CCCC(C2=Nc3ccccc3S(=O)(=O)N2)C1` (stereo not given) the figure was -5.45%. In the case of `Cn1cnc(S(=O)(=O)N2CCCC2c2ccnc3nccn23)c1` (stereo not given) it was 0.418%; in that of `O=C(c1cccc(-n2cnnc2)c1)N1C[C@@H](O)[C@H](N2CCOCC2)C1`, -1.32%. Turning to `O=C(C1CC1)N1CCCC(C2=Nc3ccccc3S(=O)(=O)N2)C1` (stereo not given), the cytotoxicity at 70.5 h was -4.52%. Turning to `CC(C)c1cc(C(=O)NCCc2nc(-c3ccncc3)n[nH]2)[nH]n1`, the cytotoxicity at 70.5 h was -5.69%. With `O=C(Cc1ccccc1F)N1CCC[C@@H]1Cn1c(=O)oc2ccccc21` the figure was 6.08%; with `CN(CCc1ccccc1)Cc1c(C2CC2)[nH]c2ncccc12`, 2.38%; with `CC(=O)N1CCC(Cc2cccc(-c3ccnn3C)n2)CC1`, -8.71%. With `O=C(CCn1ccnc1)N1CCC(c2nnc(-c3ccccn3)o2)CC1` the figure was -3.21%; with `Cc1cc(C)nc(N2CCCC(C)(c3[nH]ncc3C(=O)N(C)C)C2)n1` (stereo not given), -4.44%.

Consider `COCCNc1ccc(CC2CCCN(C3CCCC3)C2)nn1` (stereo not given), for which the cytotoxicity at 70.5 h was -4.76%. As for `CC(C)(C)C(=O)N1CCC(c2cnc(-c3cn[nH]c3)cn2)CC1`, the cytotoxicity at 70.5 h is -4.2%. In the case of `CS(=O)(=O)N1CCN(C(=O)c2cncs2)CC(C(N)=O)C1` (stereo not given) it was -5.12%. With `CN(C(=O)c1ccc(C#N)cc1)c1nnc(C2CCOC2)s1` (stereo not given) the figure was -6.28%; with `COc1cccc([C@@]2(O)CC[C@@H]3CN(C(=O)c4ccn(C)n4)C[C@@H]32)c1`, -6.49%. On to `Cc1nn(C)c(C)c1-c1ccc(=O)n(C(C)C(=O)NC2CCCCC2)n1` (stereo not given), for which the cytotoxicity at 70.5 h is -17.2%. On to `Cc1cc(-c2cnc(N3CCN(C)CC3)nc2C(C)C)on1`, for which the cytotoxicity at 70.5 h was -3.07%. With `Cc1cc(-c2cnc(N3CCC(O)CC3)nc2C(C)C)on1` the figure was 20.4%; with `Cc1cc(-c2cnc(N3CCC(C(N)=O)CC3)nc2C(C)C)on1`, 9.37%. As for `Cc1cc(O)n2nc(C3CCN(C(=O)c4ccccn4)CC3)cc2n1`, the cytotoxicity at 70.5 h came to 18.6%.

Consider `CCc1cc(O)n2nc(C3CCN(C(=O)c4cccnc4)CC3)cc2n1`, for which the cytotoxicity at 70.5 h came out at 21.2%.

As for `CCc1nc(-c2cncnc2C2CCNC2)no1` (stereo not given), the cytotoxicity at 70.5 h was 18%. For the molecule `COCC(=O)N1CCCC(C)(c2nncn2C)C1` (stereo not given), the cytotoxicity at 70.5 h was -14.6%. In the case of `OCCN1CCC(Cc2nccs2)CC1` it was 1.19%. In the case of `O=C(N[C@@H]1CN(CCc2ccc(F)cc2)C[C@H]1O)c1cscn1` it was -6.14%; in that of `CN(c1ccncn1)C1CC2(CCN(C(=O)c3cccn3C)C2)C1` (stereo not given), -0.487%; in that of `Cc1ncsc1CN1CC[C@H](O)[C@@H](n2cnc3c(N)ncnc32)CC1`, 8.32%. In the case of `CC1CCCCN1c1nc2c(c(=O)[nH]1)CCN(Cc1ccc(O)cc1)C2` (stereo not given) it was -8.85%; in that of `CC1CCCCN1c1nc2c(c(=O)[nH]1)CCN(Cc1ccccc1O)C2` (stereo not given), -7.53%.

In the case of `CN(C)C(=O)CCc1cncc(C2CCCN2Cc2ccccn2)n1` (stereo not given), the cytotoxicity at 70.5 h is -6.05%. With `Cn1ccc(C(=O)N2CCC(Cc3cccc4ncccc34)CC2)n1` the figure was -6.71%. With `Cc1cc(N2CCCC(c3n[nH]c4ncccc34)C2)ncn1` (stereo not given) the figure was -4.69%; with `NC(=O)CN1CCCC1c1csc(Nc2cnccn2)n1` (stereo not given), -9.23%.

Regarding `Cn1cc(CN2CCC(c3[nH]ncc3S(C)(=O)=O)C2)cn1` (stereo not given), the cytotoxicity at 70.5 h is -2.27%.

Regarding `CN1CCc2nc(C3CCCN(C(=O)CC(C)(C)C)C3)ncc2C1` (stereo not given), the cytotoxicity at 70.5 h is -6.36%.

With `Cc1cnccc1CN1CC[C@@](C)(O)[C@H](Oc2cccc(F)c2)C1`, the cytotoxicity at 70.5 h was -1.49%. With `Cn1cncc1CN1CC[C@](C)(O)[C@@H](Oc2cccc(F)c2)C1` the figure was 13.9%; with `CCC(CN1CCCC1)n1cncc1-c1cnn(-c2ccc(F)cc2)c1` (stereo not given), -5.95%.

For `CCC(CN1CCCC1)n1cncc1-c1cnn(Cc2ccccc2)c1` (stereo not given), the cytotoxicity at 70.5 h is -4.48%. With `CC(=O)Nc1ccc(Oc2cc(C)nc(C3CCNCC3)c2)cc1` the figure was -15.5%; with `CC(Cn1cncc1-c1cnn(Cc2ccccc2)c1)N1CCCCC1` (stereo not given), -1.65%; with `c1ncc(-c2ccc(C3CNCCO3)nc2)cn1` (stereo not given), -3.27%. Consider `Cc1nc(-c2cncnc2C2CCCNC2)no1` (stereo not given), for which the cytotoxicity at 70.5 h was determined as 26.9%. With `Cc1[nH]c2c(C)cccc2c1CC(=O)N(C)CCN(C)C` the figure was -8.69%; with `Cn1cc(CN2CCOC(c3cccc(-c4cncnc4)n3)C2)cn1` (stereo not given), -5.7%. In the case of `Cn1nccc1CN1CCOC(c2cccc(-c3cncnc3)n2)C1` (stereo not given) it was 14.3%; in that of `Cc1ncc(C(=O)N2CCOC(C(=O)N3CCCCCC3)C2)c(C)n1` (stereo not given), 1.17%. In the case of `NCc1ccccc1Sc1ccc(O)cc1` it was -8.8%; in that of `CC(N)Cc1ccccc1Sc1ccc(O)cc1` (stereo not given), -7.28%.
